This note sets out measurements from PMC2904774 (PLoS Pathogens, 2010).

This experiment has as its target T1, NUE (CT737), GST-NUE (Chlamydia trachomatis, UniProt O84742).
T1 construct: gene CT_737
To be noted: core histones or recombinant H2B, H3, H4 as acceptor, also automethylation; 50 mM Tris pH 8, 20 mM KCl, 10 mM MgCl2, 1 mM DTT, 30 °C, 1 h; labelled compound.

T1 sequence (O84742 entry or part of it): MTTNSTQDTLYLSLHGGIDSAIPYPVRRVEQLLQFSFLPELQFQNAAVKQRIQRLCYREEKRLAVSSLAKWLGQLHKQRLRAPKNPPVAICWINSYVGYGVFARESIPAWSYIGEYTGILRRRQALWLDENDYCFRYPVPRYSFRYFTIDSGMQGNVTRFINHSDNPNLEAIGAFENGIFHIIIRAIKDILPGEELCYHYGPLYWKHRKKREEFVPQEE

As to `C[S+](CC[C@H](N)C(=O)O)C[C@H]1O[C@@H](n2cnc3c(N)ncnc32)[C@H](O)[C@@H]1O` (stereo partly drawn) [SAM, S-adenosyl-L-methionine], the “in vitro methyltransferase assay, 14C autoradiography of SDS-PAGE” value is “in vitro methyltransferase assays using GST-NUE purified from E. coli and mammalian histones”.
